Key:
[1] = tested on: polarized NHBE cells; test: Binding and internalization of cationic lipid:pDNA complexes (TOTO-1 label, trypan blue quenching); settings: Table 1; grades Very Effective / Mildly Effective
Experimental: Cells were incubated with TOTO-1 or Rh-PE labeled complexes at 37° C. for the times noted in the figure legends. Following incubation, cells were washed 7 times with cold PBS and then fixed in 2% paraformadehyde for 20 min at 4° C. The membrane of the insert was removed and mounted using immuno-mount (Shandon, Pittsburgh, Pa.) containing 2 μg/ml DAPI (Molecular Probes). Bound and internalized complexes were observed under a fluorescence microscope (Olympus, AX-70). To observe only internalized complexes, cells were washed 2 times with cold PBS and then the fluorescence of surface bound complexes was quenched by a 10 min incubation with trypan blue (1 mg/ml; Diagnostic Systems, Inc., Gibbstown, N.J.) on ice. Cells were then washed an additional 5 times with cold PBS, fixed and mounted.
Polarized NHBE cells were cultured using a modified procedure based on the methods described by Yamaya et al., American Journal of Physiology, 265:L170-L177 (1993), Jiang et al., Science, 262:424-427 (1993) and Gray et al., American Journal of Respiratory Cell & Molecular Biology, 14:104-112 (1996). Briefly, first passage NHBE cells were plated at a density of 2.5×10^5 cells/cm^2 onto inserts (Millicell-PCF, 0.4 μm pore size, Millipore) coated with human placental collagen (Sigma). The culture medium was the same as that described above for growing NHBE cells as islands. Cultures were maintained under air-liquid interface conditions starting at day 3 following the initial seeding. Cells were considered ready for use when the trans-epithelial resistance was •1000 Ωcm^2.

[2] = tested on: CF patients; settings: cited from earlier work
[3] = tested on: polarized NHBE cells; test: In vitro transfection with GL-67:pCF1-SEAP, secreted alkaline phosphatase in apical supernatant; assay type: cell-based, human; settings: 0.5 μg/ml, 18 h before and after transfection, with or without Ca2+-free medium; FIG. 2A
Experimental: Prior to transfection, polarized NHBE cells on inserts were incubated in either Opti-MEM, Opti-MEM containing 0.1% EGTA, or in Ca^2+-free media (Gibco) in both sides of the insert for 30 min at 37° C. The cells were then washed 3 times with Opti-MEM, and incubated with unlabeled GL-67:pCF1-SEAP (40:53 μM) for 4 h at 37° C., after which they were washed 3 times with Opti-MEM. One ml of culture medium then was added to the outside of the insert (basal side) and 100 μl added to the inside of the insert (apical side). The supernatant from the apical side was collected on day 2 after transfection, heated at 65° C. for 1 h to denature endogenous alkaline phosphatases (Berger et al., Gene, 1988), and assayed in triplicate for secreted alkaline phosphatase (SEAP) activity using an alkaline phosphatase reagent (Sigma) and human placental alkaline phosphatase (Calbiochem, La Jolla, Calif.) as a standard.
(§1) To inhibit NHBE cell proliferation, aphidicolin (0.5 μg/ml; Sigma) was added to culture medium on the basal side of the polarized NHBE cells for 18 h at 37° C. The cells were then transfected as described above except that the concentrations of cationic lipid and pDNA were 80 and 107 μM, respectively. After transfection, aphidicolin was present in the culture medium until the cells were harvested. […] Retinoic acid enhanced the inhibitory effect of aphidicolin on cell proliferation (Chou, R. H. et al., Cell & Tissue Kinetics, 18:387-97, 1985).

[4] = tested on: NHBE cells; test: Cell proliferation assay, [methyl-3H]-thymidine incorporation into DNA; assay type: cell-based, human
Experimental: The proliferation of NHBE cells was assessed by measuring the amount of [methyl-^3H] thymidine incorporation into DNA (Fasbender et al., Gene Therapy, 4:1173-1180, 1997). [Methyl-^3H] thymidine (5 μCi/ml; Amersham, Arlington Heights, Ill.) was added to culture medium on the basal side of polarized NHBE cells which had been pre-treated with either Opti-MEM or Ca^2+-free medium. After 4 h, both groups of cells were washed 3 times with PBS and then lysed in a buffer containing 0.2% SDS, 100 mM Tris (pH=7.0), 5 mM EDTA, 200 mM NaCl, and 0.5 mg/ml proteinase K. The lysate was incubated at 65° C. for 30 min, microcentrifuged for 5 min and the supernatant placed into a fresh tube. An equal volume of isopropanol was added to precipitate the DNA. The precipitated DNA pellet was washed twice with 70% ethanol, dried, and resuspended in a 10 mM Tris-HCl, 0.5 mM EDTA buffer, pH 8.0. The DNA concentration was determined using A260/280 measurements. Tritium counts were measured using a Beckman LS6500 scintillation counter.
as §1

[5] = tested on: mouse trachea; test: Intranasal instillation of Ad2βgal-4, X-gal staining of airways; assay type: in vivo
Experimental: Female BALB/c mice 9-12 weeks of age were purchased from Taconic (Germantown, N.Y.). In some groups, mice were instilled intranasally with 25 μl of a solution containing EGTA (pH 7.5), followed by 25 μl of 5% sucrose in PBS containing Adβgal-4 (2×10^8 IU). In other groups, mice were co-instilled with 25 μl of a solution prepared by mixing equal volumes of a 2× (4×10^8 IU/25 μl) Ad2βgal-4 solution in 10% sucrose with 2×EGTA prior to instillation.
Cytochemical localization of Ogal expression in the trachea was observed using 5-bromo-4-chloro-3-indolyl-β-D-galactopyranoside (X-gal; Sigma). In brief, cannulated mouse lungs were fixed for 10 min by infusion of a fixing solution (2% paraformaldehyde and 0.2% glutaraldehyde in PBS). The lungs were then rinsed twice with 50 mM glycine in PBS, filled with X-gal solution, and stained overnight. Staining was stopped by transfering the samples into the fixing solution.
Trachea with staining levels were defined on a scale of 0 to 3, 0 indicating no cells staining for βgal, and a value of 3 indicating a large number of cells positive for the transgene. To evaluate the effect of EGTA concentration on AdV-mediated gene transfer in the trachea, mice were pre-treated with various concentrations of EGTA 0.5 h before AdV instillation. In some animals, AdV and EGTA were co-instilled. To exclude the possibility that any observed enhancement of expression was due to a hyperosmotic effect of the EGTA solution, a 20% mannitol solution (osmolarity similar to 0.4M EGTA) was included as a control in both the pre-treatment and co-instillation models.

[6] = tested on: mouse nose; settings: cited from earlier work
[7] = Stabilization of cationic lipid:pDNA complexes by PEG-containing lipid; assay type: physicochemical; settings: 1.14 mol % relative to total lipid
Experimental: For example, at 1.14 mol % DMPE-PEG5000 (relative to the amount of total lipid), cationic lipid:pDNA complexes could be stabilized at pDNA concentrations exceeding 20 mM. Without PEG-containing lipids, a salt excipient, which is not preferred since an ionic excipient also depresses transfection activity, is required to maintain the lipid:pDNA ratio of the complex during certain methods such aerosolization. For more information regarding use of PEG derivatives the following references are specifically incorporated by reference: Simon J. Eastman et al., Human Gene Therapy, 8, pp. 765-773 (1997); Simon J. Eastman et al. Human Gene Therapy, p. 8, pp. 313-322 (1997).

[8] = 0.5 μg/ml in culture medium containing 50 nM retinoic acid

CCCCCCCCCC(=O)O[C@H](CC(=O)[O-])C[N+](C)(C)C [Decanoylcamitine, decanoylcarnitine]
Effects of Tight Junction Disrupting Compounds on Cationic Amphiphile: DNA Complex Binding [1]: Mildly Effective

O=C(O)CN(CCN(CC(=O)O)CC(=O)O)CC(=O)O [EDTA, Ethylenediaminetetraacetic acid]
toxic side-effects ([2]; 0.2 g in 10 ml injected, or 0.6 g in 300 ml nebulized over 24 h, via tracheostomy once per day for 3 days): No toxic side-effects were noted | adverse effects ([2]; children with CF, aerosol of 0.05M 3 times/day for 2 weeks): no adverse effects | tolerability ([2]; children with CF, aerosol of 0.1 M 3 times/day for 2 weeks): Three out of ten could not tolerate | respiratory function ([2]; same phase I trial): remained unchanged | serum calcium and magnesium levels ([2]; same phase I trial): remained normal | Effects of Tight Junction Disrupting Compounds on Cationic Amphiphile: DNA Complex Binding [1]: Very Effective

CCCCCCCCCC(=O)[O-].[Na+] [Sodium Caprate, sodium caprate]
Effects of Tight Junction Disrupting Compounds on Cationic Amphiphile: DNA Complex Binding [1]: Mildly Effective

C[C@H](CCC(=O)NCC(=O)[O-])[C@H]1CC[C@H]2[C@@H]3[C@H](O)C[C@@H]4C[C@H](O)CC[C@]4(C)[C@H]3C[C@H](O)[C@]12C.[Na+] [Sodium glycocholate, sodium glycocholate]
Effects of Tight Junction Disrupting Compounds on Cationic Amphiphile: DNA Complex Binding [1]: Mildly Effective

C[C@@]1(CO)[C@H](O)CC[C@@]2(C)[C@H]1CC[C@H]1C[C@@H]3C[C@@]12CC[C@]3(O)CO [aphidicolin]
effect on gene expression from polarized NHBE cells [3]: no effect on gene expression | inhibition of proliferation of NHBE cells [4, 8]: sufficient to inhibit proliferation | toxicity [4, 8]: minimal toxicity | [methyl-3H]-thymidine incorporation ([4]; NHBE cells grown on plastic, presence of aphidicolin): 6,600±600 cpm/μg DNA

OC[C@@H](O)[C@@H](O)[C@H](O)[C@H](O)CO [mannitol]
X-gal staining in the trachea ([5]; 20% pre-treatment, compared with AdV alone, FIG. 4): not different | enhancement in gene transfer ([5]; pre-treating with hyperosmotic solution, FIGS. 4 & 5A): No comparible enhancements

polidocanol
AdV-mediated gene expression in respiratory epithelial cells [6]: enhanced AdV-mediated gene expression

polyethylene glycol 5000-dimyristoylphosphatidylethanolamine [DMPE-PEG5000]
pDNA concentration at which cationic lipid:pDNA complexes could be stabilized [7]: exceeding 20 mM

Reference: patent publication US6465007B1, “Transgene expression in polarized cells” (Genzyme Corporation, priority 1998, dated 2002)
